# Patent publication US20060153933A1 (priority 2002, published 2006)
# “And” between values parts separate entries of the source, which are not always exact repeats. Equal values may be shown once. Read-outs that look alike come from different tables or passages of the source.
# What was measured:
# Type in all cases: in vivo
# [1] = system: Plasmopara viticola (PLASVI)
# [2] = system: Phytophthora infestans (PHYTIN); assay: whole plant or invertebrate; conditions: for pest or weed control at 1.9 ppm: 1.90 ppm alone; for pest or weed control at 1.85 ppm: read-out: % Disease Control (observed); for pest or weed control at 0.62 ppm: 0.62 ppm alone; for pest or weed control at 5.56 ppm: 5.56 ppm alone
# [3] = system: Phytophthora infestans (PHYTIN); conditions: 1DC
# [4] = system: Plasmopara viticola (PLASVI); assay: whole plant or invertebrate; conditions: for pest or weed control at 1.85 ppm: 1.85 ppm alone; for pest or weed control at 5.56 ppm: 5.56 ppm alone
# [5] = Phytophthora infestans, 72 h, read-out: % Disease Control (observed), 3DP, 0.60 ppm alone
# [6] = Phytophthora infestans, 72 h, read-out: % Disease Control (observed), 3DP
# [7] = PHYTIN 3DP, applied alone at 1.1 ppm
# [8] = PLASVI 3DP, applied alone at 1.1 ppm
# [9] = Plasmopara viticola, 72 h, read-out: % Disease Control (observed), 3DP
# [10] = Phytophthora infestans, 48 h, read-out: % Disease Control (observed), 2DP
# [11] = Plasmopara viticola, 24 h, read-out: % Disease Control (observed), 1DP
# [12] = Plasmopara viticola, 24 h, read-out: % Disease Control (observed), 1DP, Table 14
# [13] = Plasmopara viticola, 48 h, read-out: % Disease Control (observed), 2DP
# [14] = Plasmopara viticola, 168 h, read-out: % Disease Control (observed), 7DP
compound,measurement,setting,value
"Cc1cccc(C)c1N(C(=O)CCl)C1CCOC1=O (centres unmarked) [Ofurace, ofurace]",% Disease Control (Observed),"[1]; 1DC, 0.60 ppm alone",21.1%
same,pest or weed control at 0.6 ppm,[2]; [5],0%
same,pest or weed control at 1.9 ppm,[2]; [6],0%
same,% Disease Control (Observed),[3]; 1.90 ppm alone,12.3%
same,% Disease Control (Observed),[3]; 5.60 ppm alone,61.0%
"CCNC(=O)NC(=O)/C(C#N)=N/OC [Cymoxanil, cymoxanil]",% Disease Control (Observed),"[1]; 1DC, 5.56 ppm alone",10.5%
same,% Disease Control (Observed),"[1]; 1DC, 16.70 ppm alone",35.1%
same,% Disease Control (Observed),[2]; [7],1.8%
same,% Disease Control (Observed),[4]; [8],17.5%
same,% Disease Control (Observed),[3]; 16.7 ppm alone,49.1%
"COCC(=O)N(c1c(C)cccc1C)[C@H](C)C(=O)OC [Mefenoxam, mefenoxam]",% Disease Control (Observed),[1]; in vivo,94.7%
same,% Disease Control (Observed),"[2]; 1DP, 0.60 ppm alone",12.3%
same,% Disease Control (Observed),"[2]; PHYTIN 2DP, applied alone at 3.7 ppm",12.3%
same,% Disease Control (Observed),"[2]; PHYTIN 2DP, applied alone at 11.1 ppm",17.5%
same,% Disease Control (Observed),"[4]; 1DP, 0.21 ppm alone",33.3%
same,% Disease Control (Observed),"[4]; 1DP, 0.62 ppm alone",82.5%
same,% Disease Control (Observed),"[4]; PLASVI 2DP, applied alone at 11.1 ppm",38.6%
same,% Disease Control (Observed),"[4]; PLASVI 2DP, applied alone at 33.3 ppm",66.7%
same,% Disease Control (Observed),[3]; 1.85 ppm alone,56.1%
"COc1ccc(C(=CC(=O)N2CCOCC2)c2ccc(Cl)cc2)cc1OC [Dimethomorph, dimethomorph]",% Disease Control (Observed),"[1]; 1DC, 5.56 ppm alone",8.8%
same,% Disease Control (Observed),"[2]; PHYTIN 3DP, applied alone at 1.4 ppm",3.5%
same,pest or weed control at 1.85 ppm,"[2]; Phytophthora infestans, 72 h",12.3%
same,pest or weed control at 0.62 ppm,[2]; [6],0%
same,% Disease Control (Observed),"[4]; PLASVI 3DP, applied alone at 0.5 ppm",3.5%
same,% Disease Control (Observed),"[4]; PLASVI 3DP, applied alone at 1.4 ppm",22.8%
same,pest or weed control at 1.85 ppm,[4]; [9],5.3%
same,pest or weed control at 5.56 ppm,[4]; [9],63.2%
same,% Disease Control (Observed),[3]; 5.56 ppm alone,0.0%
same,% Disease Control (Observed),[3]; 16.70 ppm alone,29.8%
same,% Disease Control (Observed),[3]; 50.00 ppm alone,33.3%
"CC[C@H](CS(=O)(=O)C(C)c1ccc(C#N)cc1)NC(=O)Oc1ccc(F)cc1 (stereo partly drawn) [Formula III, 4-fluorophenyl(1S)-1-({[(1R,S)-(4-cyanophenyl)ethyl]sulfonyl}methyl)-propylcarbamate]",% Disease Control (Observed),"[1]; 1DC, 0.60 ppm alone",5.3%
same,% Disease Control (Observed),"[1]; 1DC, 0.90 ppm alone",0.0%
same,% Disease Control (Observed),"[1]; 1DC, 1.85 ppm alone",17.5%
same,% Disease Control (Observed),"[1]; 1DC, 2.80 ppm alone",8.8% and 16.0%
same,% Disease Control (Observed),"[1]; 1DC, 5.56 ppm alone",17.5%
same,% Disease Control (Observed),"[1]; 1DC, 16.70 ppm alone",45.6%
same,% Disease Control (Observed),"[2]; 4DP, 0.60 ppm alone",15.8%
same,% Disease Control (Observed),"[2]; 4DP, 2.80 ppm alone",34.2%
same,% Disease Control (Observed),"[2]; 4DP, 5.60 ppm alone",21.10%
same,% Disease Control (Observed),"[2]; PHYTIN 2DP, applied alone at 0.4 ppm",5.3%
same,% Disease Control (Observed),"[2]; PHYTIN 2DP, applied alone at 1.1 ppm",15.8%
same,% Disease Control (Observed),"[2]; PHYTIN 2DP, applied alone at 5.56 ppm",12.3%
same,% Disease Control (Observed),"[2]; PHYTIN 3DP, applied alone at 0.62 ppm",3.5%
same,% Disease Control (Observed),[2]; [7],12.3%
same,% Disease Control (Observed),"[2]; PHYTIN 6DP, applied alone at 1.1 ppm",3.5%
same,% Disease Control (Observed),"[2]; PHYTIN 6DP, applied alone at 3.3 ppm",33.3%
same,pest or weed control at 0.6 ppm,"[2]; Phytophthora infestans, 24 h, read-out: % Disease Control (observed), 1DP, 0.60 ppm alone",3.5%
same,pest or weed control at 1.9 ppm,"[2]; Phytophthora infestans, 24 h, read-out: % Disease Control (observed), 1DP",78.6%
same,pest or weed control at 0.62 ppm,[2]; [10],8.8%
same,pest or weed control at 5.56 ppm,[2]; [10],12.3%
same,pest or weed control at 0.21 ppm,"[2]; Phytophthora infestans, 72 h, read-out: % Disease Control (observed), 3DP, 0.21 ppm alone",0%
same,pest or weed control at 0.6 ppm,[2]; [5],73.7%
same,pest or weed control at 0.9 ppm,"[2]; Phytophthora infestans, 72 h, read-out: % Disease Control (observed), 3DP, 0.90 ppm alone",1.8%
same,pest or weed control at 2.8 ppm,"[2]; Phytophthora infestans, 72 h, read-out: % Disease Control (observed), 3DP, 2.80 ppm alone",47.4%
same,pest or weed control at 5.56 ppm,[2]; [6],57.9%
same,pest or weed control at 5.56 ppm,"[2]; Phytophthora infestans, 72 h, read-out: % Disease Control (observed), Table 10, PHYTIN (3DP) as printed",31.6%
same,pest or weed control at 1.85 ppm,"[2]; Phytophthora infestans, 96 h",38.6%
same,% Disease Control (Observed),[2]; in vivo,26.3%
same,% Disease Control (Observed),"[4]; 1DP, 0.20 ppm alone",8.8%
same,% Disease Control (Observed),"[4]; 1DP, 0.67 ppm alone",49.1%
same,% Disease Control (Observed),"[4]; 4DP, 1.90 ppm alone",26.30%
same,% Disease Control (Observed),"[4]; PLASVI 2DP, applied alone at 0.4 ppm",8.8%
same,% Disease Control (Observed),"[4]; PLASVI 2DP, applied alone at 1.1 ppm",22.8%
same,% Disease Control (Observed),"[4]; PLASVI 2DP, applied alone at 1.85 ppm",7.0%
same,% Disease Control (Observed),"[4]; PLASVI 2DP, applied alone at 3.3 ppm",42.1%
same,% Disease Control (Observed),"[4]; PLASVI 2DP, applied alone at 5.56 ppm",19.3%
same,% Disease Control (Observed),"[4]; PLASVI 3DP, applied alone at 0.4 ppm",1.8%
same,% Disease Control (Observed),[4]; [8],12.3%
same,% Disease Control (Observed),"[4]; PLASVI 3DP, applied alone at 5.56 ppm",31.6%
same,% Disease Control (Observed),"[4]; PLASVI 6DP, applied alone at 3.3 ppm",12.3%
same,pest or weed control at 0.2 ppm,"[4]; Plasmopara viticola, 24 h, read-out: % Disease Control (observed), 1DP, 0.20 ppm alone",1.8%
same,pest or weed control at 0.21 ppm,"[4]; Plasmopara viticola, 24 h, read-out: % Disease Control (observed), 1DP, 0.21 ppm alone",14%
same,pest or weed control at 0.62 ppm,"[4]; Plasmopara viticola, 24 h, read-out: % Disease Control (observed), 1DP, 0.62 ppm alone",17.5%
same,pest or weed control at 1.85 ppm,[4]; [11],71.9%
same,pest or weed control at 5.56 ppm,[4]; [11],78.9%
same,pest or weed control at 1.85 ppm,[4]; [12],24.6%
same,pest or weed control at 5.56 ppm,[4]; [12],78.9%
same,pest or weed control at 0.62 ppm,"[4]; Plasmopara viticola, 48 h, read-out: % Disease Control (observed), 2DP, 0.62 ppm alone",1.8%
same,pest or weed control at 1.85 ppm,[4]; [13],15.8%
same,pest or weed control at 5.56 ppm,[4]; [13],56.1%
same,pest or weed control at 0.21 ppm,"[4]; Plasmopara viticola, 72 h, read-out: % Disease Control (observed), 3DP, 0.21 ppm alone",0%
same,pest or weed control at 0.3 ppm,"[4]; Plasmopara viticola, 72 h, read-out: % Disease Control (observed), 3DP, 0.30 ppm alone",0%
same,pest or weed control at 5.56 ppm,[4]; [9],40.4%
same,pest or weed control at 1.85 ppm,[4]; [14],14%
same,pest or weed control at 5.56 ppm,[4]; [14],52.6%
same,% Disease Control (Observed),[3]; 0.62 ppm alone,0.0%
same,% Disease Control (Observed),[3]; 0.90 ppm alone,0.0%
same,% Disease Control (Observed),[3]; 1.85 ppm alone,35.1%
same,% Disease Control (Observed),[3]; 1.90 ppm alone,21.1%
same,% Disease Control (Observed),[3]; 5.56 ppm alone,5.3%
same,% Disease Control (Observed),[3]; 8.30 ppm alone,8.8%
same,% Disease Control (Observed),[3]; 16.70 ppm alone,31.6%
